Each compound was assayed against T1, recombinant His-tag Y220C p53 DBD protein (Homo sapiens, UniProt P04637, Y220C) (assay: In vitro DNA binding activity assay (TR-FRET): binding of His-tag Y220C p53 DBD to biotin-labeled consensus DNA). Conditions: SC150 = concentration to increase DNA binding by […], His-tag Y220C p53 DBD, biotin-labeled consensus DNA.
T1 construct: recombinant His-tag Y220C p53 DBD protein (amino acids #˜94-312)
Assay type: biochemical

| Y220C SC150 (μM) | Compound |
| --- | --- |
| * (* = 0 μM ≤ SC150 < 0.1 μM) | CN1CC[C@@H](Nc2cccc3c2cc(-c2noc(CNC(=O)c4ccc(N(C)C)cc4)n2)n3CC(F)(F)F)[C@@H](F)C1 [Compound 220B, 4-(dimethylamino)-N-{[3-(4-{[(3S,4R)-3-fluoro-1-methylpiperidin-4-yl]amino}-1-(2,2,2-trifluoroethyl)-1H-indol-2-yl)-1,2,4-oxadiazol-5-yl]methyl}benzamide] |
| * (* = 0 μM ≤ SC150 < 0.1 μM) | CC1(n2ccc(C(=O)NCc3nc(-c4cc5c(N[C@@H]6CCOC[C@@H]6F)cccc5n4CC(F)(F)F)no3)c2)CCOCC1 (stereo in doubt) [Compound 494B, N-((3-(4-(((3R,4R)-3-fluorotetrahydro-2H-pyran-4-yl)amino)-1-(2,2,2-trifluoroethyl)-1H-indol-2-yl)-1,2,4-oxadiazol-5-yl)methyl)-1-(4-methyltetrahydro-2H-pyran-4-yl)-1H-pyrrole-3-carboxamide] |
| * (* = 0 μM ≤ SC150 < 0.1 μM) | CN1CC[C@@H](Nc2cccc3c2cc(-c2noc(CNC(=O)c4csc(N5CCOCC5)c4)n2)n3CC(F)(F)F)[C@@H](F)C1 [Compound 436B, N-{[3-(4-{[(3S,4R)-3-fluoro-1-methylpiperidin-4-yl]amino}-1-(2,2,2-trifluoroethyl)-1H-indol-2-yl)-1,2,4-oxadiazol-5-yl]methyl}-5-(morpholin-4-yl)thiophene-3-carboxamide] |
| * (* = 0 μM ≤ SC150 < 0.1 μM) | COCC1(n2ccc(C(=O)NCc3nc(-c4cc5c(N[C@H]6CCNC[C@H]6F)cccc5n4CC(F)(F)F)no3)c2)CC1 [Compound 476B, N-{[3-(4-{[(3R,4S)-3-fluoropiperidin-4-yl]amino}-1-(2,2,2-trifluoroethyl)-1H-indol-2-yl)-1,2,4-oxadiazol-5-yl]methyl}-1-[1-(methoxymethyl)cyclopropyl]-1H-pyrrole-3-carboxamide] |
| * (* = 0 μM ≤ SC150 < 0.1 μM) | CC1(n2ccc(C(=O)NCc3nc(-c4cc5c(N[C@H]6CNCC[C@H]6F)cccc5n4CC(F)(F)F)no3)c2)CCOCC1 [Compound 421B, N-{[3-(4-{[(3S,4R)-4-fluoropiperidin-3-yl]amino}-1-(2,2,2-trifluoroethyl)-1H-indol-2-yl)-1,2,4-oxadiazol-5-yl]methyl}-1-(4-methyloxan-4-yl)-1H-pyrrole-3-carboxamide] |
| * (* = 0 μM ≤ SC150 < 0.1 μM) | CN1CC[C@@H](Nc2cccc3c2cc(-c2noc(CNC(=O)c4csc(C(C)(C)O)c4)n2)n3CC(F)(F)F)[C@@H](F)C1 [Compound 425B, N-{[3-(4-{[(3S,4R)-3-fluoro-1-methylpiperidin-4-yl]amino}-1-(2,2,2-trifluoroethyl)-1H-indol-2-yl)-1,2,4-oxadiazol-5-yl]methyl}-5-(2-hydroxypropan-2-yl)thiophene-3-carboxamide] |
| * (* = 0 μM ≤ SC150 < 0.1 μM) | CCOC1CCCC1n1cc(C(=O)NCc2nc(-c3cc4c(N[C@@H]5CCN(C)C[C@@H]5F)cccc4n3CC(F)(F)F)no2)cn1 (stereo in doubt) [Compound 375B, 1-[(1R,2R)-2-ethoxycyclopentyl]-N-{[3-(4-{[(3S,4R)-3-fluoro-1-methylpiperidin-4-yl]amino}-1-(2,2,2-trifluoroethyl)-1H-indol-2-yl)-1,2,4-oxadiazol-5-yl]methyl}-1H-pyrazole-4-carboxamide] |
| * (* = 0 μM ≤ SC150 < 0.1 μM) | CN1CC[C@@H](Nc2cccc3c2cc(-c2noc(CNC(=O)c4cn5c(n4)CCCC5)n2)n3CC(F)(F)F)[C@@H](F)C1 [Compound 541B, N-{[3-(4-{[(3S,4R)-3-fluoro-1-methylpiperidin-4-yl]amino}-1-(2,2,2-trifluoroethyl)-1H-indol-2-yl)-1,2,4-oxadiazol-5-yl]methyl}-5H,6H, 7H,8H-imidazo[1,2-a]pyridine-2-carboxamide] |
| * (* = 0 μM ≤ SC150 < 0.1 μM) | Cc1sccc1C(=O)NCc1nc(-c2cc3c(N[C@@H]4CCN(C)C[C@@H]4F)cccc3n2CC(F)(F)F)no1 [Compound 211B, N-{[3-(4-{[(3S,4R)-3-fluoro-1-methylpiperidin-4-yl]amino}-1-(2,2,2-trifluoroethyl)-1H-indol-2-yl)-1,2,4-oxadiazol-5-yl]methyl}-2-methylthiophene-3-carboxamide] |
| * (* = 0 μM ≤ SC150 < 0.1 μM) | CO[C@H]1C[C@H](n2ccc(C(=O)NCc3nc(-c4cc5c(N[C@@H]6CCN(C)C[C@@H]6F)cccc5n4CC(F)(F)F)no3)c2)C1 [Compound 449B, N-{[3-(4-{[(3S,4R)-3-fluoro-1-methylpiperidin-4-yl]amino}-1-(2,2,2-trifluoroethyl)-1H-indol-2-yl)-1,2,4-oxadiazol-5-yl]methyl}-1-[(1r,3r)-3-methoxycyclobutyl]-1H-pyrrole-3-carboxamide] |
| * (* = 0 μM ≤ SC150 < 0.1 μM) | CN1CC[C@@H](Nc2cccc3c2cc(-c2noc(CNC(=O)c4ccn(C5CC5)c4)n2)n3CC(F)(F)F)[C@@H](F)C1 [Compound 218B, 1-cyclopropyl-N-{[3-(4-{[(3S,4R)-3-fluoro-1-methylpiperidin-4-yl]amino}-1-(2,2,2-trifluoroethyl)-1H-indol-2-yl)-1,2,4-oxadiazol-5-yl]methyl}-1H-pyrrole-3-carboxamide] |
| * (* = 0 μM ≤ SC150 < 0.1 μM) | CN1CCC(Nc2cccc3c2cc(-c2nnc(CNC(=O)c4cccc(F)c4)s2)n3CC(F)(F)F)CC1 [Compound 51B, 3-fluoro-N-[(5-{4-[(1-methylpiperidin-4-yl)amino]-1-(2,2,2-trifluoroethyl)-1H-indol-2-yl}-1,3,4-thiadiazol-2-yl)methyl]benzamide] |
| * (* = 0 μM ≤ SC150 < 0.1 μM) | CN1CC[C@@H](Nc2cccc3c2cc(-c2noc(CNC(=O)c4cn(CCF)cn4)n2)n3CC(F)(F)F)[C@@H](F)C1 [Compound 306B, N-{[3-(4-{[(3S,4R)-3-fluoro-1-methylpiperidin-4-yl]amino}-1-(2,2,2-trifluoroethyl)-1H-indol-2-yl)-1,2,4-oxadiazol-5-yl]methyl}-1-(2-fluoroethyl)-1H-imidazole-4-carboxamide] |
| * (* = 0 μM ≤ SC150 < 0.1 μM) | CCN1CC[C@@H](Nc2cccc3c2cc(-c2noc(CNC(=O)c4ccn(CC(=O)N(C)C)c4)n2)n3CC(F)(F)F)[C@@H](F)C1 [Compound 365B, 1-[(dimethylcarbamoyl)methyl]-N-{[3-(4-{[(3S,4R)-1-ethyl-3-fluoropiperidin-4-yl]amino}-1-(2,2,2-trifluoroethyl)-1H-indol-2-yl)-1,2,4-oxadiazol-5-yl]methyl}-1H-pyrrole-3-carboxamide] |

Same assay, conditions: concentration to increase DNA binding by […], incubated at either 27° C. or 29° C. for 60 min

| SC150 (μM) | Compound |
| --- | --- |
| + (+ = 0 μM ≤ SC150 < 2 μM) | CS(=O)(=O)c1ccc(NC(=O)NCc2ccc(-c3cc4c(NC5CCS(=O)(=O)CC5)cccc4n3CC(F)(F)F)cc2)cc1 [Compound 28A, 1-[(4-{4-[(1,1-dioxo-1λ^6-thian-4-yl)amino]-1-(2,2,2-trifluoroethyl)-1H-indol-2-yl}phenyl)methyl]-3-(4-methanesulfonylphenyl)urea] |
| ++++ (++++ = 10 μM ≤ SC150 < 35 μM) | CN1CCC(Nc2cccc3c2cc(-c2ccc(CNC4CCCC4)cc2)n3CC(F)(F)F)CC1 [Compound 40A, 2-{4-[(cyclopentylamino)methyl]phenyl}-N-(1-methylpiperidin-4-yl)-1-(2,2,2-trifluoroethyl)-1H-indol-4-amine] |

From patent US11807644B2 (PMV Pharmaceuticals, Inc., priority 2020, dated 2023)
